{"source": "patent US20250049930A1", "about": "“PROTAC MOLECULES TARGETING FOXP3 AND USES THEREOF” (CEDARS-SINAI MEDICAL CENTER, priority 2022, published 2025)", "key": {"[1]": {"biological_target": "ternary complex consisting of cereblon, FoxP3, and P-FoxP3 (Homo sapiens, UniProt Q96SW2+Q9BZS1)", "sequence (Q96SW2 whole entry, one chain of several)": "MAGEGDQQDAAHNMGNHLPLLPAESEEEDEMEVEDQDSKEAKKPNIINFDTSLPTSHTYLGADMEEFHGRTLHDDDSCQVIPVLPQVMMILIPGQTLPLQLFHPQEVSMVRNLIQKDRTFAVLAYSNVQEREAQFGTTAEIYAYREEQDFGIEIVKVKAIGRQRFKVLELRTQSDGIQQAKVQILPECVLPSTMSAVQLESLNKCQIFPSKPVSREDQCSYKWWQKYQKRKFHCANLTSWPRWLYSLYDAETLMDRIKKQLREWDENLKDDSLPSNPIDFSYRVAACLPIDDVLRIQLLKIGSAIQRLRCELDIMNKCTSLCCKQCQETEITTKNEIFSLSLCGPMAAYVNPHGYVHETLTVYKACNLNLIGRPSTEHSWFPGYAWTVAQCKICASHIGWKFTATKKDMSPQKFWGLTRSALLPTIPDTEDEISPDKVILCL", "experiment": "SPR assay, ternary complex cooperativity", "type": "binding", "protocol": "The SPR assay for ternary complex cooperativity was performed by BOC Sciences who provided the following details: Various concentrations of cereblon were dissolved in water and manually printed onto the 47 nm gold-coated PlexArray Nanocapture Sensor Chip (Plexera Bioscience, Seattle, WA) at 40% humidity. Each concentration was printed in replicate, and each spot contained […] of sample solution. The chip was incubated overnight in 80% humidity at 4° C., and rinsed with 10×PBST for 10 minutes, 1×PBST for 10 minutes, and deionized water twice for 10 minutes. The chip was then blocked with 5% non-fat milk in water overnight, washed as before, and then dried under a stream of nitrogen.\nSPR imaging measurements were performed with PlexAray HT (Plexera Bioscience, Seattle, WA, US). Buffers and samples were injected by a non-pulsatile piston pump into the 30 μL flow cell. […] The signal changes after binding and washing (in AU) are recorded as the assay value. Selected protein-grafted regions in the SPR images were analyzed, and the average reflectivity variations of the chosen areas were plotted as a function of time. Real-time binding signals were recorded and analyzed by Data Analysis Module (DAM, Plexera Bioscience, Seattle, WA, US). […]"}, "FoxP3": {"biological_target": "T1, FoxP3 (Homo sapiens, UniProt Q9BZS1)", "T1 construct": "endogenous in cells; host or cells: human PBMC (CD4+ gated)", "T1 sequence (Q9BZS1 1-431)": "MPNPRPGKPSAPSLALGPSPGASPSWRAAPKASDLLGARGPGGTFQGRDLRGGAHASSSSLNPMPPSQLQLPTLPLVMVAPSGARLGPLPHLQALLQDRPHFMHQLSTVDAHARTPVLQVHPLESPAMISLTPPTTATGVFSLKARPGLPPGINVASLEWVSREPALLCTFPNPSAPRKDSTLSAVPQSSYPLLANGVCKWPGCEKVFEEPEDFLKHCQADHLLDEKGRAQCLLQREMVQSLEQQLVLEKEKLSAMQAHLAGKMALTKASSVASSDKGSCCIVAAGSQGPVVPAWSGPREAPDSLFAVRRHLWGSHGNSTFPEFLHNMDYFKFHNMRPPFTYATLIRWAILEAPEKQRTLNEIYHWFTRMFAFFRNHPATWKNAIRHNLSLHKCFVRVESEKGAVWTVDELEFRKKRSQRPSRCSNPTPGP", "experiment": "FoxP3 expression in CD4+ human PBMC, flow cytometry", "type": "cell-based", "conditions": "10 μM, 3 days, PMA 10 ng/ml and Ionomycin 2 μg/ml, difference to P60 not significant", "protocol": "(§1) FIGS. 7A-7C depict that PF decreases FoxP3 and the immunosuppressive function of human CD4+ cells. Human peripheral blood mononuclear cells (PBMC) were treated in vitro with PF (10 μM) or various control drugs (10 μM) for 3 days (FIG. 7A). PMA 10 ng/ml and Ionomycin 2 μg/ml were added during PF treatment to induce FoxP3 (FIG. 7A). Resulting cells were gated on CD4 and assessed for FoxP3 expression by flow cytometry. To treat Tregs, CD4+ PBMC were isolated and treated with PF or various controls for 72 hours. […] CD8 proliferation was measured using a CFSE dilution assay. To assess CD8+ effector cells, CD4 negative splenocytes were CFSE labeled and CFSE dilution was measured in CD8+ cells by flow cytometry (FIG. 7B). In the same experiment, CD8+ cells were assessed for activation by gating on CD8 and assessing IFNγ or TNFα by flow cytometry (FIG. 7C). […]\n(§2) Human peripheral blood mononuclear cells (PBMC) were treated with phorbol 12-myristate 13-acetate (PMA) (10 ng/ml) and Ionomycin (2 μg/ml) to increase FoxP3 expression. […] CD8 proliferation was measured using a CFSE dilution assay. Immune activation was assessed by measuring TNFα or IFNγ in CD8+ or CD4+ T cells using flow cytometry.\n(§3) P60 was designed to bind both mouse and human FoxP3. Therefore, we evaluated PF using human peripheral blood mononuclear cells (PBMC). […] Resulting cells were gated on CD4 and assessed for FoxP3 expression by flow cytometry. […]"}, "Tregs": {"system": "Tregs", "experiment": "Treg immunosuppression co-culture assay with human PBMC (CFSE dilution, IFNγ, TNFα)", "type": "cell-based", "conditions": "human CD4+ PBMC treated 72 hours (10 μM), co-cultured with CD4− PBMC stimulated with αCD3 and αCD28; difference to P60 significant", "protocol": "as §1, §2, §3"}}, "note": "pKd: −log10 of the molar value. Residues, ends and D or L forms follow the SMILES beside them. *: point of attachment. X1 = O=C1CCC(N2C(=O)c3cccc(*)c3C2=O)C(=O)N1; PEG4 = NCCOCCOCCOCCOCCC(=O)O"}
{"smiles": "CSCC[C@H](NC(=O)[C@H](C)NC(=O)[C@H](Cc1ccccc1)NC(=O)[C@H](Cc1ccccc1)NC(=O)[C@@H]1CCCN1C(=O)[C@H](Cc1c[nH]c2ccccc12)NC(=O)[C@H](CCSC)NC(=O)[C@H](CCCCN)NC(=O)[C@H](CCCNC(=N)N)NC(=O)[C@H](Cc1ccccc1)NC(=O)[C@H](CO)NC(=O)[C@H](CCC(N)=O)NC(=O)[C@H](Cc1ccccc1)NC(=O)[C@H](CC(=O)O)NC(=O)[C@H](CCCNC(=N)N)NC(=O)CCOCCOCCOCCOCCNc1cccc2c1C(=O)N(C1CCC(=O)NC1=O)C2=O)C(=O)O", "note": "(some centres unmarked) [PF, Pomalidomide-PEG4-RDFQSFRKMWPFFAM] ({X1-PEG4}-RDFQSFRKMWPFFAM-OH)", "values": [{"measurement": "pKd", "setting": "[1]; SPR, cereblon printed on chip, 25° C., complex of cereblon, P-FoxP3 and recombinant FoxP3, read-out: Equilibrium dissociation constant, KD ternary", "value": 6.36}, {"measurement": "Cooperativity, a=KD binary/KD ternary", "setting": "[1]; a>1 positively cooperative, a=1 non-cooperative, a<1 negatively cooperative", "value": 2.27}, {"measurement": "percent of CD4+ cells expressing FoxP3", "setting": "FoxP3", "value": "decreased the percent of CD4+ cells expressing FoxP3 when compared to control"}, {"measurement": "CD8+ lymphocyte activation as measured by IFNγ or TNFα", "setting": "Tregs", "value": "greatest enhancement of CD8+ lymphocyte activation"}, {"measurement": "CD8+ lymphocyte proliferation (CFSE dilution)", "setting": "Tregs", "value": "highest CD8+ lymphocyte proliferation"}]}
